# Data from publication PMC12239085, “Silver(I) Ions Bridging Oxadiazole-2-thione Derivatives with Mitochondriotropic Agents: A Promising Strategy for Potent Anticancer Chemotherapy” (Inorganic Chemistry, 2025).
# Where “and” joins values, the source holds several entries; their conditions need not be identical. Identical values can stand only once. Like-named read-outs stand apart in the source and are kept apart here.
# Experiments:
# [1] = tested on: MDA-MB-231 human breast adenocarcinoma cells (hormone-independent); assay: SRB antiproliferative assay, MDA-MB-231; type: cell-based; settings: 48 h incubation
# Experimental: (§1) Stock solutions of compounds 1a–5a and 1–5 (0.01 M) in DMSO were freshly prepared and subsequently diluted with cell culture media to appropriate concentrations for various biological experiments. These included the assessment of cell viability using the SRB assay, micronucleus testing, cell morphology studies, cell cycle arrest, AO/EB staining, and mitochondrial membrane permeabilization tests. For CT-DNA binding studies, experiments were conducted in DMSO/buffer solutions. All biological experiments were performed in triplicate or more.
# (§2) Stock solutions of 1a–5a and 1–5 (0.01 M) were dissolved in DMSO and subsequently diluted with cell culture medium to the desired concentrations (0.5–30 μM). MCF-7, MDA MB-231, and MRC-5 cells were plated in 96-well flat-bottom microplates at various densities: 6000, 8000, and 2000 cells per well, respectively. The cells were incubated for 24 h at 37 °C and then exposed to 1a–5a and 1–5 for 48 h. ,–
# (§3) Cytotoxicity was evaluated using the SRB colorimetric assay at λ = 568 nm, with cell survival percentages calculated relative to the untreated control cells. Detailed information on the SRB assay procedure can be found in the previous publication. ,–
# [2] = tested on: MCF-7 human breast adenocarcinoma cells (hormone-dependent); assay: SRB antiproliferative assay, MCF-7; type: cell-based; settings: for IC50: SRB assay, 48 h incubation; for pIC50 MCF-7: p(IC50)= -Log(IC50), Table S4, this study
# Experimental: as §1, §2, §3
# lipoxygenase (LOX) = biological target: T1, lipoxygenase (LOX) (Glycine max, UniProt P08170); assay: Inhibition of linoleic acid peroxidation by LOX; type: biochemical; settings: for IC50: linoleic acid 0.3 mM, borate buffer pH 9, read-out: IC50 against LOX; for pIC50 LOX: p(IC50)= -Log(IC50), Table S4, this study
# T1 sequence (P08170 1-839): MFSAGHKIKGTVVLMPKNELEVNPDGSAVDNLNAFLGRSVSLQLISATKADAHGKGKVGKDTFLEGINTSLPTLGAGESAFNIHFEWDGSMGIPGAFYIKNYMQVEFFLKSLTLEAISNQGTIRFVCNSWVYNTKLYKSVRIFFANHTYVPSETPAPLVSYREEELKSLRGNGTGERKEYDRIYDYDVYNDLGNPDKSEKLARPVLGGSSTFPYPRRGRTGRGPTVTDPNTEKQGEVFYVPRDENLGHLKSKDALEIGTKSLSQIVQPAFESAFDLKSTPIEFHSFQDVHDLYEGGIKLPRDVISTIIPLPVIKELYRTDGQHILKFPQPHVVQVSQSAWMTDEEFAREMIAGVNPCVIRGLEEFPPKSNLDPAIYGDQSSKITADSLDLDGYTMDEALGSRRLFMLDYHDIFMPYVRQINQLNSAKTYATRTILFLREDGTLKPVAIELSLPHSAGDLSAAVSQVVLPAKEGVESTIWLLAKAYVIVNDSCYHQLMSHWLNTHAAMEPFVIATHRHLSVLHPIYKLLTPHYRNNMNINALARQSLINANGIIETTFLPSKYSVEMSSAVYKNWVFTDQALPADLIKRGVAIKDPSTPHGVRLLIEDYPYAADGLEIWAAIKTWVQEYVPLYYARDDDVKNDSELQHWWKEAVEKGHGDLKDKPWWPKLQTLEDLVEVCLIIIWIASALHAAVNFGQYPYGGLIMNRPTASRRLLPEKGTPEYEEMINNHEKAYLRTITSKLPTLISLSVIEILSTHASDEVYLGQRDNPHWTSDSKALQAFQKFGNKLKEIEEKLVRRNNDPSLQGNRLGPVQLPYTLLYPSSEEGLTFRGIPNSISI
# Experimental: This study performed as previously reported. , In brief, a 0.2 M borate buffer solution at pH 9 was prepared by dissolving boric acid in double-distilled water (ddw). The pH was then adjusted to 9.0 using a 50% w/w sodium hydroxide solution.
# The linoleic acid substrate solution was prepared as follows: 0.05 mL of linoleic acid was dissolved in 0.05 cm^3 of 95% ethanol within a volumetric flask. Subsequently, double-distilled water was gradually added until reaching a final volume of 5 cm^3. This solution was then diluted with 30 cm^3 of borate buffer.
# The LOX enzyme solution was prepared in an ice-cold bath by diluting a stock solution of 10,000 U/mL. For each reaction, 500 U of enzyme was used per 3 cm^3 of reaction mixture. One unit of LOX activity corresponds to an increase in absorbance at 234 nm of 0.001 per minute.
# Enzyme activity was monitored by UV spectrophotometry. Specifically, 0.05 cm^3 of enzyme solution was added to a cuvette containing 2 cm^3 of linoleic acid solution, along with the appropriate volumes of buffer and inhibitor solutions 1–5 (concentration range of 1.5 to 12.5 μΜ). The enzymatic activity was determined by measuring the increase in absorbance at 234 nm, which corresponds to the oxidation of linoleic acid (ε = 25,000 M^–1 cm^–1). During the assays, the substrate concentration was maintained constant at 0.3 mM, while the buffer and inhibitor volumes were adjusted to achieve final inhibitor concentrations ranging from 2 to 30 μM.
# The degree of LOX activity (A%) in the presence or absence of the 1–5 was calculated according to the following equation: , A%=(Vo(inthepresenceofinhibitor/Vo(withoutinhibitor))×100(%) where V o is the initial rate.
# The value of the initial rate (V o, μΜ min^–1) was calculated according to the following formula: Vo=ΔC/Δt=ΔA/ε×Δt=tgα/ε where C is the concentration of the product (hydroperoxy-linoleic acid), t is the reaction time, ε is the molar extinction coefficient of hydroperoxy-linoleic acid, and tgα represents the slope of the kinetic curve obtained by plotting absorbance against time.
# [3] = tested on: nontumorigenic human breast epithelial cell line (MCF-10A); assay: SRB toxicity assay, MCF-10A; type: cell-based; settings: 48 h incubation
# Experimental: The toxicity of 1–5 was also evaluated against normal human fetal lung fibroblast (MRC-5) cells. Their IC50 values lie from 2.7 to 4.1 μM (Table ). The toxicity of these compounds was also evaluated against the nontumorigenic human breast epithelial cell line (MCF-10A), which is widely used as a model for normal human breast cells. They closely resemble normal human mammary epithelial cells in structure and are regulated by hormones and growth factors.
# as §3
# [4] = tested on: normal human fetal lung fibroblast (MRC-5) cells; assay: SRB toxicity assay, MRC-5; type: cell-based; settings: 48 h incubation
# Experimental: as §1, §2, §3
# MRC-5 cells = assay: In vitro micronucleus (MN) assay; type: cell-based, human; settings: for Percentage of MN: IC50 values, control 2.9 ± 0.2
# Experimental: MRC-5 cells were seeded at a density of 2 × 10^4 cells/well onto glass coverslips, which were placed in six-well plates containing 3 mL of cell culture medium and incubated for 24 h. […] After exposure, the coverslips were washed three times with PBS and treated with a hypotonic solution (75 mM KCl) for 10 min at room temperature. The hypotonized cells were fixed with at least three changes of a 1/3 acetic acid/methanol solution. Following fixation, the coverslips were washed with cold methanol containing 1% acetic acid. Acridine orange staining (50 μg/mL) was applied for 15 min at 37 °C, after which the coverslips were rinsed three times with PBS to remove any excess stain. The number of micronucleated cells per 1000 cells was then counted. ,– ,
SMILES,IC50 [1] [µM],IC50 [2] [µM],pIC50 MCF-7 [2],IC50 (lipoxygenase (LOX)) [µM],pIC50 LOX (lipoxygenase (LOX)),IC50 [3] [µM],IC50 [4] [µM],Relative ratio of MN in respect to untreated cells (MRC-5 cells) [fold],Relative ratio of MN in respect to untreated cells (MRC-5 cells; 48 h),Percentage of MN (MRC-5 cells; 48 h) [%]
c1ccc(-c2nnc([S][Ag]([PH](c3ccccc3)(c3ccccc3)c3ccccc3)([PH](c3ccccc3)(c3ccccc3)c3ccccc3)[PH](c3ccccc3)(c3ccccc3)c3ccccc3)o2)cc1 [compound 1],4.09 ± 0.17,2.03 ± 0.09,5.7,2.5,5.6,10.6,3.77 ± 0.16,1.38,1.4 and 1.38,4.0 ± 0.6
Clc1cccc(-c2nnc([S][Ag]([PH](c3ccccc3)(c3ccccc3)c3ccccc3)([PH](c3ccccc3)(c3ccccc3)c3ccccc3)[PH](c3ccccc3)(c3ccccc3)c3ccccc3)o2)c1 [compound 5],3.55 ± 0.19,1.69 ± 0.08,5.8,1.8,5.7,16.1,2.89 ± 0.08,,2.3 and 2.34,6.8 ± 1.5
Clc1ccccc1-c1nnc([S][Ag]([PH](c2ccccc2)(c2ccccc2)c2ccccc2)([PH](c2ccccc2)(c2ccccc2)c2ccccc2)[PH](c2ccccc2)(c2ccccc2)c2ccccc2)o1 [compound 4],4.27 ± 0.15,3 ± 0.15,5.5,7.5,5.1,16,4.07 ± 0.24,1.69,1.7 and 1.69,4.9 ± 0.5
Fc1ccccc1-c1nnc([S][Ag]([PH](c2ccccc2)(c2ccccc2)c2ccccc2)([PH](c2ccccc2)(c2ccccc2)c2ccccc2)[PH](c2ccccc2)(c2ccccc2)c2ccccc2)o1 [compound 2],3.9 ± 0.14,2.5 ± 0.19,5.6,7.3,5.1,13.9,3.12 ± 0.11,1.24,1.2 and 1.24,3.6 ± 0.5
Fc1ccc(-c2nnc([S][Ag]([PH](c3ccccc3)(c3ccccc3)c3ccccc3)([PH](c3ccccc3)(c3ccccc3)c3ccccc3)[PH](c3ccccc3)(c3ccccc3)c3ccccc3)o2)cc1 [compound 3],2.52 ± 0.07,2.15 ± 0.16,5.7,6.8,5.2,10.9,2.72 ± 0.19,1.31,1.3 and 1.31,3.8 ± 0.2
